“And” between values parts separate entries of the source, which are not always exact repeats. Equal values may be shown once.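 Briefly, cells in 96-well plates were exposed to five compound concentrations for 48 h, and endpoints were estimated by linear interpolation. GI50: concentration for 50% inhibition of growth.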 The source made the active and inactive calls. No stated cut-off is given here; in the data, active = GI50 up to about 1.1 µM and inactive = higher.
Tests used:
Test in all cases: NCI anticancer screen, dose series, 48 h
SNB-19 = tested on: SNB-19
SK-MEL-2 = tested on: SK-MEL-2
Malme-3M = tested on: Malme-3M
UACC-62 = tested on: UACC-62
RXF 393 = tested on: RXF 393
A498 = tested on: A498
TK-10 = tested on: TK-10
MDA-MB-231 = tested on: MDA-MB-231
BT-549 = tested on: BT-549
786-0 = tested on: 786-0
PC-3 = tested on: PC-3
DU-145 = tested on: DU-145
OVCAR-5 = tested on: OVCAR-5
ACHN = tested on: ACHN
UO-31 = tested on: UO-31
SK-MEL-28 = tested on: SK-MEL-28
UACC-257 = tested on: UACC-257
MCF7 = tested on: MCF7
EKVX = tested on: EKVX
HT-29 = tested on: HT-29
IGROV-1 = tested on: IGROV-1
SF-268 = tested on: SF-268
HCC 2998 = tested on: HCC 2998
OVCAR-4 = tested on: OVCAR-4
SK-OV-3 = tested on: SK-OV-3
SF-295 = tested on: SF-295
SW-620 = tested on: SW-620
SF-539 = tested on: SF-539
A549 = tested on: A549
T47D = tested on: T47D
OVCAR-8 = tested on: OVCAR-8
COLO 205 = tested on: COLO 205
M14 = tested on: M14
KM12 = tested on: KM12
HCT-116 = tested on: HCT-116
CAKI-1 = tested on: CAKI-1
U-251 = tested on: U-251
NCI-H226 = tested on: NCI-H226
HCT-15 = tested on: HCT-15
HOP-62 = tested on: HOP-62
OVCAR-3 = tested on: OVCAR-3
NCI-H23 = tested on: NCI-H23
SN12C = tested on: SN12C
SNB-75 = tested on: SNB-75
NCI-H460 = tested on: NCI-H460
HOP-92 = tested on: HOP-92
LOX IMVI = tested on: LOX IMVI
SR = tested on: SR
CCRF-CEM = tested on: CCRF-CEM
MDA-MB-435 = tested on: MDA-MB-435
MDA-N = tested on: MDA-N
HL-60 = tested on: HL-60
K562 = tested on: K562
MOLT-4 = tested on: MOLT-4
SK-MEL-5 = tested on: SK-MEL-5
RPMI-8226 = tested on: RPMI-8226
NCI-H522 = tested on: NCI-H522

CC(C)=CCCC1(C)C2COC(=O)C21 (stereo unspecified)
GI50 (SNB-19): > 100000 nM (inactive) | GI50 (SK-MEL-2): > 100000 nM (inactive) | GI50 (Malme-3M): > 100000 nM (inactive) | GI50 (UACC-62): > 100000 nM (inactive) | GI50 (RXF 393): > 100000 nM (inactive) | GI50 (A498): > 100000 nM (inactive) | GI50 (TK-10): > 100000 nM (inactive) | GI50 (MDA-MB-231): > 100000 nM (inactive) | GI50 (BT-549): > 100000 nM (inactive) | GI50 (786-0): > 100 µM (inactive) and 63.2 µM (inactive) | GI50 (PC-3): > 100000 nM (inactive) | GI50 (DU-145): > 100000 nM (inactive) | GI50 (OVCAR-5): > 100000 nM (inactive) | GI50 (ACHN): > 100 µM (inactive) and 68.9 µM (inactive) | GI50 (UO-31): > 100000 nM (inactive) | GI50 (SK-MEL-28): > 100000 nM (inactive) | GI50 (UACC-257): > 100000 nM (inactive) | GI50 (MCF7): 31.3 µM (inactive) and 33.9 µM (inactive) | GI50 (EKVX): 67500 nM (inactive) | GI50 (HT-29): > 100000 nM (inactive) | GI50 (IGROV-1): 53700 nM (inactive) | GI50 (SF-268): > 100000 nM (inactive) | GI50 (HCC 2998): > 100000 nM (inactive) | GI50 (OVCAR-4): > 100 µM (inactive) and 80 µM (inactive) | GI50 (SK-OV-3): > 100000 nM (inactive) | GI50 (SF-295): > 100 µM (inactive) and 63.2 µM (inactive) | GI50 (SW-620): 64700 nM (inactive)

COC1/C=C/C=C(/C)Cc2cc(O)c(Cl)c(c2)N(C)C(=O)CC(OC(=O)C(C)C)C2(C)OC2C(C)C2CC1(O)NC(=O)O2 (stereo unspecified)
GI50 (SNB-19): < 10 nM (active) | GI50 (SF-539): < 10 nM (active) | GI50 (A549): < 10 nM (active) | GI50 (T47D): > 100000 nM (inactive) | GI50 (UACC-62): < 10 nM (active) | GI50 (RXF 393): < 10 nM (active) | GI50 (OVCAR-8): < 10 nM (active) | GI50 (A498): < 10 nM (active) | GI50 (MDA-MB-231): < 10 nM (active) | GI50 (COLO 205): < 10 nM (active) | GI50 (BT-549): < 10 nM (active) | GI50 (M14): < 10 nM (active) | GI50 (KM12): < 10 nM (active) | GI50 (HCT-116): < 10 nM (active) | GI50 (PC-3): < 10 nM (active) | GI50 (DU-145): < 10 nM (active) | GI50 (CAKI-1): 21200 nM (inactive) | GI50 (U-251): < 10 nM (active) | GI50 (NCI-H226): > 100000 nM (inactive) | GI50 (HCT-15): < 10 nM | GI50 (HOP-62): 67.3 nM (active) | GI50 (OVCAR-3): < 10 nM (active) | GI50 (NCI-H23): < 10 nM (active) | GI50 (SN12C): < 10 nM (active) | GI50 (SNB-75): < 10 nM (active) | GI50 (UO-31): < 10 nM (active) | GI50 (NCI-H460): < 10 nM (active) | GI50 (UACC-257): 4890 nM (inactive) | GI50 (HOP-92): 64900 nM (inactive) | GI50 (LOX IMVI): < 10 nM (active) | GI50 (MCF7): < 10 nM (active) | GI50 (SR): < 10 nM (active) | GI50 (HT-29): < 10 nM (active) | GI50 (CCRF-CEM): 394 nM (active) | GI50 (MDA-MB-435): < 10 nM (active) | GI50 (IGROV-1): < 10 nM (active) | GI50 (MDA-N): < 10 nM (active) | GI50 (SF-268): < 10 nM (active) | GI50 (HL-60): < 10 nM (active) | GI50 (HCC 2998): < 10 nM (active) | GI50 (K562): < 10 nM (active) | GI50 (OVCAR-4): < 10 nM (active) | GI50 (MOLT-4): < 10 nM (active) | GI50 (SK-MEL-5): < 10 nM (active) | GI50 (RPMI-8226): < 10 nM (active) | GI50 (SK-OV-3): < 10 nM (active) | GI50 (SF-295): < 10 nM (active) | GI50 (SW-620): < 10 nM (active) | GI50 (NCI-H522): < 10 nM (active)

From ChEMBL document CHEMBL1201862, “PubChem BioAssay data set” (2004)
